Laboratory results reported in patent publication US20240165112A1, “THERAPY FOR THE TREATMENT OF CANCER” (Bristol-Myers Squibb Company, priority 2022, published 2024).

Key:
Assay in all cases: 3D clonogenic assay in patient derived organoids
Format in all cases: cell-based, human
[1] = tested on: LXFA677 organoid, NSCLC (adenocarcinoma subtype); conditions: for Combination activity 5 μM Compound 1 (cAUC % reduction): chemotherapy dose titration + 5 μM Compound 1 vs chemotherapy alone; for Combination activity 20 μM Compound 1 (cAUC % reduction): chemotherapy dose titration + 20 μM Compound 1 vs chemotherapy alone
Procedure: (§1) Five tumor cell lines (4T1.2, A549, EMT6, NCI-H460, and HT29) were treated with a range of paclitaxel or 5-FU concentrations in the presence of dimethlylsulfoxide (DMSO), 5 μM Compound 1, or 20 μM Compound 1. Cells were imaged 4 days after treatment and percent confluence was assessed by image quantification. EC50 values for cell confluence were used to assess chemotherapy potency. Eleven patient-derived tumor organoids (MAXFTN449, MAXFTN2990, PAXF1657, PAXF2131, CXF1256, CXF2129, CXF2061, LXFE2478, LXFE690, LXFA677, LXFA644) were seeded in a 3D matrix and treated with a range of paclitaxel, 5-FU, SN38, Gemcitabine, oxaliplatin, and carboplatin concentrations in the presence of DMSO, 5 μM Compound 1, or 20 μM Compound 1. After 8 to 13 days in culture, colonies were stained, imaged, and counted. A dose response curve was generated for chemotherapy alone or chemotherapy in combination with 5 or 20 μM Compound 1. Combination activity was defined as a percentage of the area under the chemotherapy dose response curve (cAUC) for Compound 1 combination groups compared to the cAUC of chemotherapy alone.
(§2) For combination experiments, working stock solutions of all compounds were prepared in DMSO at concentrations of 660-fold the highest test concentration used and stored at −20° C. Platin compounds were prepared freshly on each treatment day. On each day of an experiment, an aliquot of the working stock solutions was used and stored at room temperature prior to and during treatment. First, 1:2 dilutions of 660-fold concentrated working stocks were prepared in DMSO (in case of monotherapy controls), or equal amounts of the compound working stocks were mixed (in case of drug combinations). Then, different dilutions of these 330-fold concentrated solutions were prepared in DMSO to give an 8×2 matrix combination layout with conditions. The DMSO dilutions were further diluted […] into cell culture medium (IMDM, supplemented with 20% (v/v) fetal bovine serum, and 50 μg/mL gentamicin) in an intermediate dilution plate. Finally, 10 μL taken from the intermediate dilution plate were transferred to 140 μL of cells and medium per well of the final assay plate. Thus, the DMSO dilutions used for the mono- and the combination-treatment were diluted 1:660, and the DMSO concentration in the assay was […].
(§3) Tumors were passaged as subcutaneous xenografts in NMRI nu/nu mice. At a tumor volume of 400 to 1000 mm^3, tumor-bearing mice were euthanized, and tumors were collected under sterile conditions without delay. Tumors were mechanically disaggregated and subsequently incubated with an enzyme cocktail consisting of collagenase type IV (41 U/mL), DNase I (125 U/mL), hyaluronidase type III (100 U/mL), and dispase II (1 U/mL) in RPMI 1640 medium at 37° C. for 60 to 120 minutes. Cells were passed through sieves of 100 μm and 40 μm mesh size, and washed with RPMI 1640 medium. The percentage of viable cells was determined in a Neubauer-hemocytometer using trypan blue exclusion. Aliquots of the cells were frozen down and stored in liquid nitrogen vapor phase. On each day of an experiment, a frozen aliquot of tumor cells was thawed and used for preparation of assay plates.
(§4) The clonogenic assay was carried out in a 96 well plate format using ultra low attachment plates. For each test, plates were prepared as follows: each test well contained a layer of semi-solid medium with tumor cells (50 μL), and a second layer of medium supernatant with or without test compound (100 μL). The cell layer consisted of […] to 12.5×10^3 tumor cells per well, which were seeded in 50 μL/well cell culture medium (IMDM, supplemented with 20% (v/v) fetal bovine serum, 50 μg/mL gentamicin, and 0.4% (w/v) agar). After 24 hours, the soft-agar layer was covered with 90 μL of the same culture medium without agar, and 10 μL of control medium or test compound after serial dilution in DMSO for the duration of the experiment (continuous exposure, 100 μL drug overlay).

[2] = tested on: LXFE2478 organoid, NSCLC (squamous subtype); conditions: for Combination activity 5 μM Compound 1 (cAUC % reduction): chemotherapy dose titration + 5 μM Compound 1 vs chemotherapy alone; for Combination activity 20 μM Compound 1 (cAUC % reduction): chemotherapy dose titration + 20 μM Compound 1 vs chemotherapy alone
Procedure: as §1, §2, §3, §4

[3] = tested on: LXFA644 organoid, NSCLC (adenocarcinoma subtype); conditions: for Combination activity 5 μM Compound 1 (cAUC % reduction): chemotherapy dose titration + 5 μM Compound 1 vs chemotherapy alone; for Combination activity 20 μM Compound 1 (cAUC % reduction): chemotherapy dose titration + 20 μM Compound 1 vs chemotherapy alone
Procedure: as §1, §2, §3, §4

[4] = tested on: LXFE690 organoid, NSCLC (squamous subtype); conditions: for Combination activity 5 μM Compound 1 (cAUC % reduction): chemotherapy dose titration + 5 μM Compound 1 vs chemotherapy alone; for Combination activity 20 μM Compound 1 (cAUC % reduction): chemotherapy dose titration + 20 μM Compound 1 vs chemotherapy alone
Procedure: as §1, §2, §3, §4

[5] = tested on: CXF2061 organoid, colon cancer
Procedure: as §1, §2, §3, §4

[6] = tested on: CXF2129 organoid, colon cancer
Procedure: as §1, §2, §3, §4

[7] = tested on: CXF1256 organoid, colon cancer
Procedure: as §1, §2, §3, §4

[8] = chemotherapy dose titration + 5 μM Compound 1 vs chemotherapy alone
[9] = chemotherapy dose titration + 20 μM Compound 1 vs chemotherapy alone

| SMILES | Combination activity 5 μM Compound 1 (cAUC % reduction) [1] [%] | Combination activity 20 μM Compound 1 (cAUC % reduction) [1] [%] | Combination activity 5 μM Compound 1 (cAUC % reduction) [2] [%] | Combination activity 5 μM Compound 1 (cAUC % reduction) ([2]; listed as gemcitabine) [%] | Combination activity 20 μM Compound 1 (cAUC % reduction) [2] [%] | Combination activity 5 μM Compound 1 (cAUC % reduction) [3] [%] | Combination activity 20 μM Compound 1 (cAUC % reduction) [3] [%] | Combination activity 5 μM Compound 1 (cAUC % reduction) [4] [%] | Combination activity 20 μM Compound 1 (cAUC % reduction) [4] [%] | Combination activity 5 μM Compound 1 (cAUC % reduction) [5, 8] [%] | Combination activity 20 μM Compound 1 (cAUC % reduction) [5, 9] [%] | Combination activity 5 μM Compound 1 (cAUC % reduction) [6, 8] [%] | Combination activity 20 μM Compound 1 (cAUC % reduction) [6, 9] [%] | Combination activity 5 μM Compound 1 (cAUC % reduction) [7, 8] [%] | Combination activity 20 μM Compound 1 (cAUC % reduction) [7, 9] [%] | Combination activity 5 μM Compound 1 (cAUC % reduction) ([3]; listed as carboplatin) [%] |
| --- | --- | --- | --- | --- | --- | --- | --- | --- | --- | --- | --- | --- | --- | --- | --- | --- |
| Nc1ccn([C@@H]2O[C@H](CO)[C@@H](O)C2(F)F)c(=O)n1 [Gemcitabine, gemcitabine] | 7 | 15 | 41 | 41 | 30 | 3 | 20 | 59 | 61 |  |  |  |  |  |  |  |
| O=C1[O][Pt]2([NH][C@@H]3CCCC[C@H]3[NH]2)[O]C1=O [Oxaliplatin, oxaliplatin] |  |  |  |  |  |  |  |  |  | 13 | −18 | 37 | 9 | 70 | 63 |  |
| N.N.O=C([O-])C1(C(=O)[O-])CCC1.[Pt+2] [Carboplatin, carboplatin] | 7 | 14 | 27 |  | 3 | 5 | 19 | 73 | 80 |  |  |  |  |  |  | 50 |
